Data set [1] relates to Plasmodium gallinaceum. As to the kind of experiment: Antimalarial activity against Plasmodium gallinaceum B infected in chick assessed as host survival time at 120 mg/kg, sc treated immediately after infection. In kind it is functional, organism-based. Details: dose 120 mg/kg.
In data set [2] the test system is Plasmodium berghei. As to the kind of experiment: Antimalarial activity against Plasmodium berghei infected in mouse assessed as host survival time at 640 mg/kg, sc treated after 3 days of infection (reference value: 6.2 +/- 0.5 days). In kind it is functional.
In data set [3] the test system is Plasmodium gallinaceum. As to the kind of experiment: Antimalarial activity against Plasmodium gallinaceum B infected in chick assessed as host survival time at 320 mg/kg, sc treated immediately after infection. The class given is functional.
Data set [4] concerns Plasmodium gallinaceum. As to the kind of experiment: Antimalarial activity against Plasmodium gallinaceum B infected in chick assessed as host survival time at 160 mg/kg, sc treated immediately after infection. The class given is functional.
The test system of data set [5] is Gallus gallus. Briefly: Toxicity in chick at 160 mg/kg, sc. Details: dose 160 mg/kg, route subcutaneous. As to conditions: chicken, in vivo. The class given is organism-based.
Data set [6] has as its system Plasmodium berghei. As to the kind of experiment: Antimalarial activity against Plasmodium berghei infected in mouse assessed as host survival time at 320 mg/kg, sc treated after 3 days of infection (reference value: 6.2 +/- 0.5 days). In kind it is functional.
For data set [7], the system named is Gallus gallus. As to the kind of experiment: Toxicity in chick at 320 mg/kg, sc. In kind it is organism-based. Details: dose 320 mg/kg, route subcutaneous. As to conditions: chicken, in vivo.
The test system of data set [8] is Plasmodium berghei. As to the kind of experiment: Antimalarial activity against Plasmodium berghei infected in mouse assessed as host cured at 320 to 640 mg/kg, sc treated after 3 days of infection. In kind it is functional, organism-based.
Another data set relates to Mus musculus. Briefly: Toxicity in mouse at 640 mg/kg, sc. Details: dose 640 mg/kg, route subcutaneous. As to conditions: in vivo. The class given is organism-based.
Data set [9] has as its system Plasmodium berghei. As to the kind of experiment: Antimalarial activity against Plasmodium berghei infected in mouse assessed as host survival time at 160 mg/kg, sc treated after 3 days of infection (reference value: 6.2 +/- 0.5 days). In kind it is functional. As to conditions: route subcutaneous.
The subject of data set [10] is Gallus gallus. As to the kind of experiment: Toxicity in chick at 120 mg/kg, sc. The class given is organism-based. On the set-up: dose 120 mg/kg, route subcutaneous. As to conditions: chicken, in vivo.
Data set [11] relates to Plasmodium gallinaceum. Briefly: Antimalarial activity against Plasmodium gallinaceum B infected in chick assessed as host survival time at 80 mg/kg, sc treated immediately after infection. In kind it is functional, organism-based. Details: dose 80 mg/kg.

Active and inactive are the calls of the source. The calls are words filed in the database; no cut-off is given here.

Take `CCN(CC)CCCC(C)/N=c1\cc(-c2ccc(Cl)c(Cl)c2)sc2ccc(OC)cc12` (centres undefined): the MST entry in the data set with Plasmodium gallinaceum [1] is “inactive”.

For `CCN(CC)CCCC(C)/N=c1\cc(-c2ccc(Cl)cc2)sc2ccc(Cl)cc12.Cl` (centres undefined), the MST result in the data set with Plasmodium berghei [2] is “inactive”. In the data set on Plasmodium gallinaceum [3] (route subcutaneous), the MST was 4.7 days.

Turning to `CCN(CC)CCCC(C)/N=c1\cc(C23CC4CC(CC(C4)C2)C3)sc2ccc(Cl)cc12.Cl` (centres undefined), the MST result in the data set with Plasmodium berghei [2] and in the data set with Plasmodium gallinaceum [4] was “inactive” each time. Besides, the Activity entry with Gallus gallus [5] is given as “Toxic”.

On to `CCN(CC)CCCC(C)/N=c1\cc(-c2ccc(F)cc2)sc2ccc(Br)cc12.Cl` (centres undefined), for which the values for the MST with Plasmodium berghei [2] (route subcutaneous) and in the data set with Plasmodium berghei [6] (route subcutaneous) were 10.1 days and 6.9 days, respectively. Further, the MST entry in the data set with Plasmodium gallinaceum [4] was “inactive”. In addition, the Activity result with Gallus gallus [7] is “Toxic”.

Regarding `CCN(CC)CCC/N=c1\cc(-c2ccccc2)sc2ccc(Cl)cc12.NS(=O)(=O)O`, the MST in the data set on Plasmodium berghei [2] (route subcutaneous) was found to be 10.3 days; with Plasmodium berghei [6] (route subcutaneous) it was 9.1 days. The MST result in the data set with Plasmodium gallinaceum [3] was “inactive”.

In the case of `Clc1ccc(-c2c/c(=N\Cc3ccccn3)c3cc(Cl)ccc3s2)cc1`, the MST result in the data set with Plasmodium berghei [6] and in the data set with Plasmodium gallinaceum [3] was “inactive” each time.

Turning to `CCN(CC)CCCC(C)/N=c1\cc(-c2ccc(Cl)c(Cl)c2)sc2ccc(F)cc12` (centres undefined), the MST result in the data set with Plasmodium berghei [2] and in the data set with Plasmodium gallinaceum [1] was “inactive” each time.

For `CN(C)CCC/N=c1\cc(-c2ccc(Cl)cc2)sc2ccccc12.Cl`, the result with Plasmodium berghei [8] was Active. The Activity result in the data set with Mus musculus is given as “Toxic”.

On to `CN(C)CCC/N=c1\cc(-c2ccc(Cl)cc2)sc2ccc(Cl)cc12`, for which, in the data set with Plasmodium berghei [8], the result was Active. Moreover, the MST in the data set with Plasmodium berghei [6] (route subcutaneous) is 9.8 days; with Plasmodium berghei [9], 7 days; in the data set on Plasmodium gallinaceum [3] (route subcutaneous), 4.4 days; in the data set on Plasmodium gallinaceum [4] (route subcutaneous) it was 3.4 days.

In the case of `Cl.Clc1ccc(-c2c/c(=N\CCCN3CCCCC3)c3cc(Cl)ccc3s2)cc1`, the MST result in the data set with Plasmodium berghei [2] was “inactive”. Moreover, the MST in the data set with Plasmodium gallinaceum [3] (route subcutaneous) came out at 5.2 days.

As to `Clc1ccc2sc(-c3ccccc3)c/c(=N\C3CN4CCC3CC4)c2c1` (centres undefined), the MST entry in the data set with Plasmodium berghei [2] and in the data set on Plasmodium gallinaceum [3] was “inactive” each time.

Consider `CN1CCCC1CC/N=c1\cc(-c2ccccc2)sc2ccc(Cl)cc12` (centres undefined), for which the MST in the data set with Plasmodium berghei [6] (route subcutaneous) was determined as 7 days.

With `N=C(N)N/N=c1\cc(-c2ccccc2)sc2ccc(Cl)cc12`, in the data set on Plasmodium berghei [2] (route subcutaneous), the MST came out at 6.2 days.

Consider `CCN(CC)CCCC(C)/N=c1\cc(-c2ccc(Cl)c(Cl)c2)sc2ccc(Br)cc12` (centres undefined), for which the MST result in the data set with Plasmodium berghei [6] and in the data set on Plasmodium gallinaceum [4] was “inactive” in each case.

On to `CN1CCN(CCC/N=c2\cc(-c3ccc(Cl)cc3)sc3ccc(Cl)cc23)CC1`, for which the result in the data set on Plasmodium berghei [8] was Active. The MST in the data set with Plasmodium berghei [6] (route subcutaneous) worked out at 11.2 days; with Plasmodium berghei [9], 6.2 days; with Plasmodium gallinaceum [3] (route subcutaneous), 3.4 days.

As for `CN1CCN(CCC/N=c2\cc(-c3ccc(Cl)cc3)sc3ccc(Br)cc23)CC1`, the MST result with Plasmodium berghei [6] and in the data set with Plasmodium gallinaceum [4] was “inactive” throughout.

As for `Clc1ccc2sc(-c3ccccc3)c/c(=N\CCN3CCCC3)c2c1`, the MST entry with Plasmodium berghei [2] was “inactive”.

As for `CCN(CC)CCCC(C)/N=c1\cc(-c2ccc(Cl)cc2)sc2ccc(Br)cc12.Cl` (centres undefined), the MST entry with Plasmodium berghei [6] was “inactive”. Further, in the data set with Plasmodium gallinaceum [4] (route subcutaneous), the MST came out at 5 days.

As for `Clc1ccc2sc(-c3ccccc3)c/c(=N\CCCCC3CCCCC3)c2c1`, the MST result with Plasmodium berghei [2] and with Plasmodium gallinaceum [3] was “inactive” throughout.

`CN(C)CCC/N=c1\cc(-c2ccccc2)sc2ccc(Br)cc12.Cl`: in the data set on Plasmodium berghei [6] (route subcutaneous), the MST amounted to 12.6 days.

For the compound `O=C(NCCC/N=c1\cc(-c2ccccc2)sc2ccc(Cl)cc12)OCc1ccccc1`, in the data set with Plasmodium berghei [2], the MST result was “inactive”.

As for `CCN(CC)CCCC(C)/N=c1\cc(-c2ccccc2)sc2ccc(Br)cc12.Cl` (centres undefined), in the data set on Plasmodium berghei [8], the result was Active. The MST in the data set with Plasmodium berghei [9] stood at 9.5 days. In addition, the MST entry in the data set with Plasmodium gallinaceum [4] was “inactive”.

Turning to `Clc1ccc2sc(-c3ccccc3)c/c(=N\C34CC5CC(CC(C5)C3)C4)c2c1`, the MST entry with Plasmodium berghei [2] and in the data set with Plasmodium gallinaceum [3] was “inactive” each time.

As to `CCN(CC)CCCC(C)/N=c1\cc(-c2ccc(F)cc2)sc2ccc(F)cc12.Cl` (centres undefined), in the data set on Plasmodium berghei [2], the MST result was “inactive”. In addition, the Activity result in the data set with Gallus gallus [10] was “Toxic”.

With `OCCN1CCN(CCCC/N=c2\cc(C34CC5CC(CC(C5)C3)C4)sc3ccc(Br)cc23)CC1`, the MST entry in the data set with Plasmodium berghei [6] and in the data set with Plasmodium gallinaceum [1] was “inactive” in each case. For the same compound, the Activity entry in the data set on Gallus gallus [10] is reported as “Toxic”.

Take `OCCN1CCN(CC/N=c2\cc(-c3ccc(Cl)cc3)sc3ccc(Cl)cc23)CC1`: the MST result in the data set on Plasmodium berghei [2] and with Plasmodium gallinaceum [3] was “inactive” each time.

For the compound `NCCC/N=c1\cc(-c2ccccc2)sc2ccc(Cl)cc12`, in the data set with Plasmodium berghei [2], the MST entry was “inactive”.

Take `Clc1ccc(-c2c/c(=N\CCCCC3CCCCC3)c3cc(Cl)ccc3s2)cc1`: the MST entry in the data set on Plasmodium berghei [2] and in the data set with Plasmodium gallinaceum [3] was “inactive” in each case.

For the compound `CCN(CC)CCCC(C)/N=c1\cc(-c2ccccc2)sc2ccc(Cl)cc12.Cl` (centres undefined), the outcome with Plasmodium berghei [8] was Active. Also, the results for the MST with Plasmodium berghei [6] (route subcutaneous) and with Plasmodium berghei [9] were 10.6 days and 8 days, respectively. In addition, the Activity result in the data set on Gallus gallus [7] is “Toxic”.

As to `CCN(CC)CCCC(C)/N=c1\cc(-c2ccc(Cl)cc2)sc2ccccc12.Cl` (centres undefined), the MST entry in the data set on Plasmodium berghei [6] and in the data set on Plasmodium gallinaceum [11] was “inactive” throughout. In addition, the Activity entry in the data set on Mus musculus and in the data set on Gallus gallus [5] was “Toxic” throughout.

For `Cl.Clc1ccc2sc(-c3ccccc3)c/c(=N\CCCN3CCOCC3)c2c1`, the MST with Plasmodium berghei [2] (route subcutaneous) was 6.8 days.

As to `CN1CCN(CCC/N=c2\cc(-c3ccc(Cl)cc3)sc3ccccc23)CC1`, the MST in the data set with Plasmodium berghei [6] (route subcutaneous) was determined as 6.9 days.

Consider `CN1CCN(CCC/N=c2\cc(-c3ccccc3)sc3ccc(Cl)cc23)CC1`, for which the MST in the data set on Plasmodium berghei [6] (route subcutaneous) was found to be 7.3 days. Also, the MST entry with Plasmodium gallinaceum [3] is “inactive”.

Regarding `Clc1ccc2sc(-c3ccccc3)c/c(=N\c3cccnc3)c2c1`, the MST result in the data set on Plasmodium berghei [6] and in the data set on Plasmodium gallinaceum [3] was “inactive” in each case.

With `CN(C)CC/N=c1\cc(-c2ccccc2)sc2ccc(Cl)cc12`, the MST result in the data set on Plasmodium berghei [2] was “inactive”.

In the case of `Clc1ccc(-c2c/c(=N\CCCN3CCOCC3)c3cc(Br)ccc3s2)cc1Cl`, in the data set with Plasmodium berghei [2] (route subcutaneous), the MST was found to be 10.5 days. For the same compound, the MST entry with Plasmodium gallinaceum [3] was “inactive”.

As to `CN(C)CCC/N=c1\cc(-c2ccccc2)sc2ccc(Cl)cc12.Cl.O`, the MST in the data set with Plasmodium berghei [2] (route subcutaneous) is 13.6 days.

With `CN1CCCC1CC/N=c1\cc(-c2ccc(Cl)c(Cl)c2)sc2ccc(F)cc12` (centres undefined), the MST entry in the data set on Plasmodium berghei [2] and with Plasmodium gallinaceum [3] was “inactive” in each case.

For the compound `Cl.OCCN1CCN(CCCC/N=c2\cc(-c3ccc(Cl)cc3)sc3ccc(Cl)cc23)CC1`, the MST with Plasmodium berghei [2] (route subcutaneous) came to 7.9 days; in the data set on Plasmodium berghei [6] (route subcutaneous) it was 7.4 days. Besides, the Activity entry in the data set with Mus musculus and with Gallus gallus [7] was “Toxic” in each case.

The values above are taken from ChEMBL document CHEMBL3244086, “A new class of antimalarial drugs: derivatives of benzothiopyrans” (J Med Chem, 1978).
